From PMC8288134, “Synthesis, potential antitumor activity, cell cycle analysis, and multitarget mechanisms of novel hydrazones incorporating a 4-methylsulfonylbenzene scaffold: a molecular docking study” (Journal of Enzyme Inhibition and Medicinal Chemistry, 2021)
Where two headings read alike, the source gives them in different places.

Legend:
HL-60(TB) = assay: cells; type: cell-based, human; conditions: Homo sapiens, HL-60, HL-60(TB); one dose 10 µM; read-out: Growth inhibition percentage (GI%)
K-562 = assay: NCI antitumor screen (SRB); type: cell-based; conditions: Homo sapiens, K562, read-out: Growth inhibition percentage (GI%)
MOLT-4 = assay: NCI antitumor screen (SRB); type: cell-based; conditions: Homo sapiens, one dose 10 µM, read-out: Growth inhibition percentage (GI%)
A549/ATCC = assay: NCI antitumor screen (SRB); type: cell-based; conditions: Homo sapiens, one dose 10 µM, read-out: Growth inhibition percentage (GI%)
HOP-62 = assay: NCI antitumor screen (SRB); type: cell-based; conditions: Homo sapiens, HOP-62, read-out: Growth inhibition percentage (GI%)
NCI-H522 = assay: NCI antitumor screen (SRB); type: cell-based; conditions: Homo sapiens
U251 = assay: NCI antitumor screen (SRB); type: cell-based; conditions: Homo sapiens, U-251, one dose 10 µM, read-out: Growth inhibition percentage (GI%)
SK-MEL-2 = assay: NCI antitumor screen (SRB); type: cell-based; conditions: Homo sapiens
UACC-257 = assay: NCI antitumor screen (SRB); type: cell-based, human; conditions: Homo sapiens, one dose 10 µM, read-out: Growth inhibition percentage (GI%)
OVCAR-8 = assay: NCI antitumor screen (SRB); type: cell-based; conditions: Homo sapiens, one dose 10 µM, read-out: Growth inhibition percentage (GI%)
[1] = test system: full panel of 59 cancer cell lines; assay: NCI antitumor screen, full panel; conditions: one dose 10 µM
CCRF-CEM = assay: NCI antitumor screen (SRB); type: cell-based; conditions: Homo sapiens, one dose 10 µM, read-out: Growth inhibition percentage (GI%)
NCI-H226 = assay: NCI antitumor screen (SRB); type: cell-based; conditions: Homo sapiens, one dose 10 µM, read-out: Growth inhibition percentage (GI%)
HT29 = assay: NCI antitumor screen (SRB); type: cell-based; conditions: Homo sapiens, HT-29, one dose 10 µM, read-out: Growth inhibition percentage (GI%)
SK-OV-3 = assay: NCI antitumor screen (SRB); type: cell-based; conditions: Homo sapiens, one dose 10 µM, read-out: Growth inhibition percentage (GI%)
A498 = assay: NCI antitumor screen (SRB); type: cell-based; conditions: Homo sapiens, one dose 10 µM, read-out: Growth inhibition percentage (GI%)
UO-31 = assay: NCI antitumor screen (SRB); type: cell-based, human; conditions: Homo sapiens, one dose 10 µM, read-out: Growth inhibition percentage (GI%)
PC-3 = assay: NCI antitumor screen (SRB); type: cell-based; conditions: Homo sapiens, one dose 10 µM, read-out: Growth inhibition percentage (GI%)
T-47D = assay: NCI antitumor screen (SRB); type: cell-based; conditions: Homo sapiens, T47D, one dose 10 µM, read-out: Growth inhibition percentage (GI%)
SR = assay: NCI antitumor screen (SRB); type: cell-based; conditions: Homo sapiens, one dose 10 µM, read-out: Growth inhibition percentage (GI%)
HCT-116 = assay: NCI antitumor screen (SRB); type: cell-based; conditions: Homo sapiens, read-out: Growth inhibition percentage (GI%)
SNB-75 = assay: NCI antitumor screen (SRB); type: cell-based; conditions: Homo sapiens, one dose 10 µM, read-out: Growth inhibition percentage (GI%)
CAKI-1 = assay: NCI antitumor screen (SRB); type: cell-based; conditions: Homo sapiens, one dose 10 µM, read-out: Growth inhibition percentage (GI%)
COLO 205 = assay: NCI antitumor screen (SRB); type: cell-based; conditions: Homo sapiens, one dose 10 µM, read-out: Growth inhibition percentage (GI%)
[2] = NCI-H522, read-out: Growth inhibition percentage (GI%)
[3] = SK-MEL-2, read-out: Growth inhibition percentage (GI%)

| SMILES | inhibition at 10 µM (HL-60(TB)) [%] | inhibition at 10 µM (K-562) [%] | inhibition at 10 µM (MOLT-4) [%] | inhibition at 10 µM (A549/ATCC) [%] | inhibition at 10 µM (HOP-62) [%] | inhibition at 10 µM (NCI-H522; [2]) [%] | inhibition at 10 µM (SK-MEL-2; [3]) [%] | inhibition at 10 µM (UACC-257; UACC-257) [%] | PCE: positive cytotoxic effect (number of cell lines with GI 10 to 100% / total number of cell lines) [1] | inhibition at 10 µM (CCRF-CEM) [%] | inhibition at 10 µM (HT29) [%] | inhibition at 10 µM (UO-31; UO-31) [%] | inhibition at 10 µM (PC-3) [%] | other results |
| --- | --- | --- | --- | --- | --- | --- | --- | --- | --- | --- | --- | --- | --- | --- |
| CS(=O)(=O)c1ccc(C(=O)NN=Cc2ccccc2)cc1 [Compound 4, N'-Benzylidene-4-(methylsulfonyl)benzohydrazide] | 60.3 | 11.3 | 25.5 | 28.5 | 12 | 42.1 | 21.5 | 44.2 | 10/59 |  |  |  |  | inhibition at 10 µM (U251): 20.4%; inhibition at 10 µM (OVCAR-8): 15.1% |
| CS(=O)(=O)c1ccc(C(=O)NN=Cc2cccnc2)cc1 [Compound 5, 4-(Methylsulfonyl)-N'-(pyridin-3-ylmethylene)benzohydrazide] | 20.5 | 18.8 |  | 10.6 | 16.5 | 15.1 |  |  | 13/59 | 11.1 | 13.3 | 16.3 | 17.9 | inhibition at 10 µM (NCI-H226): 11.9%; inhibition at 10 µM (SK-OV-3): 16.9%; inhibition at 10 µM (A498): 11.2%; inhibition at 10 µM (T-47D): 13.7% |
| CS(=O)(=O)c1ccc(C(=O)NN=Cc2ccc(Cl)cc2)cc1 [Compound 7, N'-(4-Chlorobenzylidene)-4-(methylsulfonyl)benzohydrazide] | 52.1 | 14 | 29.4 |  |  | 15.7 | 12.8 |  | 7/59 |  |  |  | 22.8 | inhibition at 10 µM (A498): 12.3% |
| CS(=O)(=O)c1ccc(C(=O)NN=Cc2ccc(F)cc2)cc1 [Compound 8, N'-(4-Fluorobenzylidene)-4-(methylsulfonyl)benzohydrazide] | 23.1 | 13.6 | 23.9 | 11.1 |  | 15.9 |  | 18.4 | 9/59 | 11.8 |  |  |  | inhibition at 10 µM (SR): 20.2%; inhibition at 10 µM (HCT-116): 10.8% |
| COc1ccc(C=NNC(=O)c2ccc(S(C)(=O)=O)cc2)cc1 [Compound 10, N'-(4-Methoxybenzylidene)-4-(methylsulfonyl)benzohydrazide] | 42.9 |  | 21.1 | 29.8 |  | 20.8 | 11.8 | 29 | 11/59 | 10.6 | 10.8 |  | 13.8 | inhibition at 10 µM (NCI-H226): 13.4%; inhibition at 10 µM (OVCAR-8): 11.3% |
| CS(=O)(=O)c1ccc(C(=O)N/N=C/c2ccc(O)cc2)cc1 [Compound 11] | 50.5 | 26.2 | 32.5 |  |  | 11.7 |  |  | 5/59 |  |  |  | 10.9 |  |
| CN(C)c1ccc(C=NNC(=O)c2ccc(S(C)(=O)=O)cc2)cc1 [Compound 12, N'-(4-(Dimethylamino)benzylidene)-4-(methylsulfonyl)benzohydrazide] | 38 | 17.2 | 29.8 | 28.4 | 11.4 | 40.4 |  | 39.2 | 9/59 |  | 20.5 | 11.2 |  |  |
| CS(=O)(=O)c1ccc(C(=O)NN=Cc2ccccc2Cl)cc1 [Compound 13, N'-(2-Chlorobenzylidene)-4-(methylsulfonyl)benzohydrazide] | 47.7 | 32.5 | 32.3 | 21.6 | 12.7 |  |  | 35.5 | 10/59 |  |  | 15.7 |  | inhibition at 10 µM (SNB-75): 15.1%; inhibition at 10 µM (SK-OV-3): 11.7%; inhibition at 10 µM (T-47D): 12.5% |
| CS(=O)(=O)c1ccc(C(=O)NN=Cc2ccccc2F)cc1 [Compound 14, N'-(2-Fluorobenzylidene)-4-(methylsulfonyl)benzohydrazide] | 36 | 25.7 | 26.4 | 29.3 | 15.8 | 26 |  | 42.4 | 12/59 |  | 18.6 |  |  | inhibition at 10 µM (SR): 49.2%; inhibition at 10 µM (OVCAR-8): 14.5%; inhibition at 10 µM (CAKI-1): 11.7%; inhibition at 10 µM (T-47D): 11.8% |
| COc1ccccc1C=NNC(=O)c1ccc(S(C)(=O)=O)cc1 [Compound 15, N'-(2-Methoxybenzylidene)-4-(methylsulfonyl)benzohydrazide] | 36.5 | 23.4 | 11.6 | 11.9 | 18.9 |  |  | 10.1 | 14/59 | 16.1 |  | 14.4 | 19.1 | inhibition at 10 µM (SR): 15.6%; inhibition at 10 µM (NCI-H226): 10.3%; inhibition at 10 µM (HCT-116): 10.7%; inhibition at 10 µM (SK-OV-3): 17.1%; inhibition at 10 µM (T-47D): 18.2% |
| COc1cc(/C=N/NC(=O)c2ccc(S(C)(=O)=O)cc2)ccc1O [Compound 19] | 67.3 | 27.2 | 30.9 | 29.3 | 12.1 | 37.7 | 13.9 | 48.4 | 13/59 |  | 17.5 | 12.8 |  | inhibition at 10 µM (SR): 18.5%; inhibition at 10 µM (U251): 13%; inhibition at 10 µM (OVCAR-8): 19.6% |
| COc1ccc(C=NNC(=O)c2ccc(S(C)(=O)=O)cc2)cc1OC [Compound 21, N'-(3,4-Dimethoxybenzylidene)-4-(methylsulfonyl)benzohydrazide] | 45.9 | 19.1 | 34.1 |  |  | 15.7 |  |  | 8/59 |  |  |  | 11.5 | inhibition at 10 µM (HCT-116): 11%; inhibition at 10 µM (SNB-75): 14.2%; inhibition at 10 µM (CAKI-1): 11% |
| CS(=O)(=O)c1ccc(C(=O)NN=Cc2ccc3c(c2)OCO3)cc1 [Compound 22, N'-(Benzo[d][1,3]dioxol-5-ylmethylene)-4-(methylsulfonyl)benzohydrazide] | 43 | 14.5 | 29.9 | 32.3 |  | 14 | 10.9 | 40.9 | 9/59 | 13 | 11 |  |  |  |
| COc1cc(C=NNC(=O)c2ccc(S(C)(=O)=O)cc2)cc(OC)c1OC [Compound 23, 4-(Methylsulfonyl)-N'-(3,4,5-trimethoxybenzylidene)benzohydrazide] | 44.2 | 37.6 | 32.6 | 22.8 |  |  |  | 28.6 | 9/59 |  |  | 10.2 |  | inhibition at 10 µM (COLO 205): 14.6%; inhibition at 10 µM (SNB-75): 11.3%; inhibition at 10 µM (SK-OV-3): 14.2% |
| COc1cc(OC)c(OC)cc1/C=N/NC(=O)c1ccc(S(C)(=O)=O)cc1 [Compound 24] |  |  | 21.4 | 17.1 |  |  |  |  | 8/59 |  | 17.9 |  | 18.6 | inhibition at 10 µM (NCI-H522; NCI-H522, one dose 10 µM, read-out: Growth inhibition percentage (GI%)): 39.8%; inhibition at 10 µM (SK-MEL-2; SK-MEL-2, one dose 10 µM, read-out: Growth inhibition percentage (GI%)): 11.7%; inhibition at 10 µM (UACC-257; UACC-257, UACC-257): 21.6%; inhibition at 10 µM (UO-31; UO-31, UO-31): 10.5% |
